This passage reports Ki results from US9273033B2, “Substituted pyridone derivatives as PDE10 inhibitors” (Merck Sharp & Dohme Corp., priority 2012, dated 2016).

The term Ki denotes a dissociation constant, usually derived from enzyme kinetics or from competition with a known ligand.

Chain of human PDE10A2 (Q9Y233 267-1055): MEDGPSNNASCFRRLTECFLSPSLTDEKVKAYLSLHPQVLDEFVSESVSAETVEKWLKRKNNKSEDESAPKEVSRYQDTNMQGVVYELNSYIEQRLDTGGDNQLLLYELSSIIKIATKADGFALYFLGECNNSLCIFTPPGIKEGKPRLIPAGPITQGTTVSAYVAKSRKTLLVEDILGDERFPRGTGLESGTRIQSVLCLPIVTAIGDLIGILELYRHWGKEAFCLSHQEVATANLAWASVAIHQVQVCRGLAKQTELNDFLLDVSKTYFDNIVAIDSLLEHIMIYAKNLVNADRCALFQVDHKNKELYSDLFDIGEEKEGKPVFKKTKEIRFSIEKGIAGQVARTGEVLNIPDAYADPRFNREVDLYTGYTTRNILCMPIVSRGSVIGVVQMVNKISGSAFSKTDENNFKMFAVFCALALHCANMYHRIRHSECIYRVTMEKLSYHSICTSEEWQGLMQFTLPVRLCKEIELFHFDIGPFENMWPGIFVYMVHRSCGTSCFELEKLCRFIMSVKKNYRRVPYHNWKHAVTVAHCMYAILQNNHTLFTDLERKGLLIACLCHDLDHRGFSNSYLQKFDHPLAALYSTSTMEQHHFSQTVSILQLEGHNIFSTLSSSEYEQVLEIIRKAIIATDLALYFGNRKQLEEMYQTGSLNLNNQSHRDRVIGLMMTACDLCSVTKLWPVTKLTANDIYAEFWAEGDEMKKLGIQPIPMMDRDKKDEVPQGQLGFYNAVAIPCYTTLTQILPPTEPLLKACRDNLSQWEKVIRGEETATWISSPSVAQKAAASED

In the assay the target is human PDE10A2 (Homo sapiens (Human), UniProt Q9Y233). Briefly: PDE10 fluorescence polarization (IMAP FP) inhibition assay. Conditions: human PDE10A2, FAM-labeled cAMP substrate, read-out: PDE10A Ki. Format: biochemical. A digest of the protocol:
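Cytoplasmic lysate of AD293 cells transiently expressing human PDE10A2 (diluted to ~20% substrate conversion) incubated 30 min at room temperature with 50 nM FAM-cAMP in Tris pH 7.2 buffer with MgCl2, DTT. Activity read by IMAP fluorescence polarization. 0% inhibition set with 1% DMSO, 100% with reference PDE10 inhibitor.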
On the technique in general: In fluorescence polarisation assays a small probe gives low polarisation when free and higher when bound to something large.
For `COCCn1cc(-c2cnc(C)nc2OC[C@H]2C[C@@H]2c2ccc(OC)cn2)ccc1=O` [Example 39, 1-(2-methoxyethyl)-5-(4-(((1S,2S)-2-(5-methoxypyridin-2-yl)cyclopropyl)methoxy)-2-methylpyrimidin-5-yl)pyridin-2(1H)-one], the Ki is 0.821 nM.

As to `CCn1cc(-c2cnc(C)nc2OC[C@H]2C[C@@H]2c2ccc(C)cn2)cc(C)c1=O` [Example 41, 1-ethyl-3-methyl-5-(2-methyl-4-(((1S,2S)-2-(5-methylpyridin-2-yl)cyclopropyl)methoxy)pyrimidin-5-yl)pyridin-2(1H)-one], the Ki was 0.533 nM. The figure for `Cc1ccc([C@H]2C[C@@H]2COc2nc(C)ncc2-c2cc(=O)n(C)cc2C)nc1` [Example 72, 1,5-dimethyl-4-(2-methyl-4-(((1S,2S)-2-(5-methylpyridin-2-yl)cyclopropyl)methoxy)pyrimidin-5-yl)pyridin-2(1H)-one] is 2.16 nM; for `Cc1ncc(-c2ccc(=O)n(C(F)F)c2)c(OC[C@H]2C[C@@H]2c2ccc3ccccc3n2)n1` [Example 11, 1-(difluoromethyl)-5-(2-methyl-4-(((1S,2S)-2-(quinolin-2-yl)cyclopropyl)methoxy)pyrimidin-5-yl)pyridin-2(1H)-one] it is 0.048 nM; for `COc1ccc([C@H]2C[C@@H]2COc2nc(C)ncc2-c2cc(=O)n(C)cc2C)nc1` [Example 82, 4-(4-(((1S,2S)-2-(5-methoxypyridin-2-yl)cyclopropyl)methoxy)-2-methylpyrimidin-5-yl)-1,5-dimethylpyridin-2(1H)-one] it is 0.496 nM.

Regarding `COn1cc(-c2cnc(C)nc2OC[C@H]2C[C@@H]2c2ccc(C)cn2)ccc1=O` [Example 8, 1-methoxy-5-(2-methyl-4-(((1S,2S)-2-(5-methylpyridin-2-yl)cyclopropyl)methoxy)pyrimidin-5-yl)pyridin-2(1H)-one], the Ki was 2.33 nM. Regarding `COc1ccc([C@H]2C[C@@H]2COc2nc(C)ncc2-c2ccc(=O)n(CC(F)F)c2)nc1` [Example 44, 1-(2,2-difluoroethyl)-5-(4-(((1S,2S)-2-(5-methoxypyridin-2-yl)cyclopropyl)methoxy)-2-methylpyrimidin-5-yl)pyridin-2(1H)-one], the Ki stood at 2.3 nM. The figure for `COc1ccc([C@H]2C[C@@H]2COc2nc(C)ncc2-c2cc(=O)n(C)cc2C(F)(F)F)nc1` [Example 93, 4-(4-(((1S,2S)-2-(5-methoxypyridin-2-yl)cyclopropyl)mcthoxy)-2-methylpyrimidin-5-yl)-1-methyl-5-(trifluoromethyl)pyridin-2(1H)-one] is 3.02 nM; for `Cc1ncc(-c2cc(=O)n(C)cn2)c(OC[C@H]2C[C@@H]2c2ccc3ccccc3n2)n1` [Example 140, 3-methyl-6-(2-methyl-4-(((1S,2S)-2-(quinolin-2-yl)cyclopropyl)methoxy)pyrimidin-5-yl)pyrimidin-4(3H)-one] it is 0.228 nM; for `Cc1ccc([C@H]2C[C@@H]2COc2nc(C)ncc2-c2cc(C)c(=O)n(C)c2)nc1` [Example 40, 1,3-dimethyl-5-(2-methyl-4-(((1S,2S)-2-(5-methylpyridin-2-yl)cyclopropyl)methoxy)pyrimidin-5-yl)pyridin-2(1H)-one] it is 0.409 nM.

On to `Cc1ncc(-c2ccc(=O)n(C)c2)c(OC[C@H]2C[C@@H]2c2ccc3ccccc3n2)n1` [Example 29, 1-methyl-5-(2-methyl-4-(((1S,2S)-2-(quinolin-2-yl)cyclopropyl)methoxy)pyrimidin-5-yl)pyridin-2(1H)-one], for which the Ki is 0.052 nM.

Consider `Cc1ccc([C@H]2C[C@@H]2COc2nc(C)ncc2-c2ccc(=O)n(C)c2)nc1` [Example 28, 1-methyl-5-(2-methyl-4-(((1S,2S)-2-(5-methylpyridin-2-yl)cyclopropyl)methoxy)pyrimidin-5-yl)pyridin-2(1H)-one], for which the Ki amounted to 2.04 nM. As to `Cc1ncc(-c2ccn(C)c(=O)c2)c(OC[C@H]2C[C@@H]2c2ccc3ccccc3n2)n1` [Example 79, 1-methyl-4-(2-methyl-4-(((1S,2S)-2-(quinolin-2-yl)cyclopropyl)methoxy)pyrimidin-5-yl)pyridin-2(1H)-one], the Ki was 0.03 nM.

For the molecule `COc1ccc([C@H]2C[C@@H]2COc2nc(C)ncc2-c2cc(C)c(=O)n(C)n2)nc1` [Example 66, 6-(4-(((1S,2S)-2-(5-methoxypyridin-2-yl)cyclopropyl)methoxy)-2-methylpyrimidin-5-yl)-2,4-dimethylpyridazin-3(2H)-one], the Ki is 1.23 nM. The figure for `COc1ccc([C@H]2C[C@@H]2COc2nc(C)ncc2-c2cc(C)n(C)c(=O)c2)nc1` [Example 113, 4-(4-(((1S,2S)-2-(5-methoxypyridin-2-yl)cyclopropyl)methoxy)-2-methylpyrimidin-5-yl)-1,6-dimethylpyridin-2(1H)-one] is 0.8 nM. On to `Cc1ccc([C@H]2C[C@@H]2COc2nc(C)ncc2-c2ccn(CC#N)c(=O)c2)nc1` [Example 120, 2-(4-(2-methyl-4-(((1S,2S)-2-(5-methylpyridin-2-yl)cyclopropyl)methoxy)pyrimidin-5-yl)-2-oxopyridin-1(2H)-yl)acetonitrile], for which the Ki was 1.06 nM.

For `COc1ccc([C@H]2C[C@@H]2COc2nc(C)ncc2-c2ccc(=O)n(C(C)C)c2)nc1` [Example 21, 1-isopropyl-5-(4-(((1S,2S)-2-(5-methoxypyridin-2-yl)cyclopropyl)methoxy)-2-methylpyrimidin-5-yl)pyridin-2(1H)-one], the inhibitory constant (Ki) was 0.827 nM. The figure for `Cc1ncc(-c2ccn(C)c(=O)c2)c(OC[C@@H]2C[C@H]2c2ccc(F)cn2)n1` [Example 84, 4-(4-(((1R,2R)-2-(5-fluoropyridin-2-yl)cyclopropyl)methoxy)-2-methylpyrimidin-5-yl)-1-methylpyridin-2(1H)-one] is 88.4 nM; for `Cc1ncc(-c2ccn(C)c(=O)c2)c(OC[C@H]2C[C@@H]2c2ccc(OC(F)F)cn2)n1` [Example 90, 4-(4-(((1S,2S)-2-(5-(difluoromethoxy)pyridin-2-yl)cyclopropyl)methoxy)-2-methylpyrimidin-5-yl)-1-methylpyridin-2(1H)-one] it is 9.22 nM. For `COc1ccc([C@H]2C[C@@H]2COc2nc(C)ncc2-c2cc(=O)n(C)nc2OC)nc1` [Example 138, 6-methoxy-5-(4-(((1S,2S)-2-(5-methoxypyridin-2-yl)cyclopropyl)methoxy)-2-methylpyrimidin-5-yl)-2-methylpyridazin-3(2H)-one] the value was 2.16 nM; for `Cc1ncc(-c2cc(C)n(C)c(=O)c2)c(OC[C@H]2C[C@@H]2c2ccc3ccccc3n2)n1` [Example 97, 1,6-dimethyl-4-(2-methyl-4-(((1S,2S)-2-(quinolin-2-yl)cyclopropyl)methoxy)pyrimidin-5-yl)pyridin-2(1H)-one], 0.041 nM. The figure for `COCCn1cc(-c2cnc(C)nc2OC[C@H]2C[C@@H]2c2ccc(C)cn2)ccc1=O` [Example 6, 1-(2-methoxyethyl)-5-(2-methyl-4-(((1S,2S)-2-(5-methylpyridin-2-yl)cyclopropyl)methoxy)pyrimidin-5-yl)pyridin-2(1H)-one] is 1.38 nM; for `COc1ccc([C@H]2C[C@@H]2COc2nc(C)ncc2-c2ccc(=O)n(C)n2)nc1` [Example 64, 6-(4-(((1S,2S)-2-(5-methoxypyridin-2-yl)cyclopropyl)methoxy)-2-methylpyrimidin-5-yl)-2-methylpyridazin-3(2H)-one] it is 2.83 nM. As for `CCn1cc(-c2cnc(C)nc2OC[C@H]2C[C@@H]2c2ccc3ccccc3n2)ccc1=O` [Example 32, 1-ethyl-5-(2-methyl-4-(((1S,2S)-2-(quinolin-2-yl)cyclopropyl)methoxy)pyrimidin-5-yl)pyridin-2(1H)-one], the inhibition constant Ki came to 0.024 nM. Take `Cc1ncc(-c2ccn(C)c(=O)c2)c(OC[C@H]2C[C@@H]2c2ccc(F)cn2)n1` [Example 88, 4-(4-(((1S,2S)-2-(5-fluoropyridin-2-yl)cyclopropyl)methoxy)-2-methylpyrimidin-5-yl)-1-methylpyridin-2(1H)-one]: the Ki came out at 27.5 nM. On to `COc1ccc([C@H]2C[C@@H]2COc2nc(C)ncc2-c2cc(=O)n(C)cc2C#N)nc1` [Example 89, 4-(4-(((1S,2S)-2-(5-methoxypyridin-2-yl)cyclopropyl)methoxy)-2-methylpyrimidin-5-yl)-1-methyl-6-oxo-1,6-dihydropyridine-3-carbonitrile], for which the Ki was 7.39 nM.

Regarding `[2H]C([2H])([2H])n1cc(-c2cnc(C)nc2OC[C@H]2C[C@@H]2c2ccc(C)cn2)ccc1=O` [Example 48, 1-methyl-5-(2-methyl-4-(((1S,2S)-2-(5-methylpyridin-2-yl)cyclopropyl)methoxy)pyrimidin-5-yl)pyridin-2(1H)-one], the Ki was 1.7 nM. The figure for `CCn1cc(-c2cnc(C)nc2OC[C@H]2C[C@@H]2c2ccc(C)cn2)ccc1=O` [Example 5, 1-ethyl-5-(2-methyl-4-(((1S,2S)-2-(5-methylpyridin-2-yl)cyclopropyl)methoxy)pyrimidin-5-yl)pyridin-2(1H)-one] is 1.1 nM. For `COCCn1ccc(-c2cnc(C)nc2OC[C@H]2C[C@@H]2c2ccc(C)cn2)cc1=O` [Example 101, 1-(2-methoxyethyl)-4-(2-mcthyl-4-(((1S,2S)-2-(5-methylpyridin-2-yl)cyclopropyl)methoxy)pyrimidin-5-yl)pyridin-2(lH)-one], the Ki was 0.4 nM. For `COc1ccc([C@H]2C[C@@H]2COc2nc(C)ncc2-c2cc(OC)c(=O)n(C)c2)nc1` [Example 17, 3-methoxy-5-(4-(((1S,2S)-2-(5-methoxypyridin-2-yl)cyclopropyl)methoxy)-2-methylpyrimidin-5-yl)-1-methylpyridin-2(1H)-one] the value was 0.151 nM; for `COc1ccc([C@H]2C[C@@H]2COc2nc(C)ncc2-c2ccc(=O)n(CC(F)(F)F)c2)nc1` [Example 52, 5-(4-(((1S,2S)-2-(5-methoxypyridin-2-yl)cyclopropyl)methoxy)-2-methylpyrimidin-5-yl)-1-(2,2,2-trifluoroethyl)pyridin-2(1H)-one], 3.11 nM.
